# Columns and labels:
# Assay in all cases: relative viability (nuclei count vs DMSO), 5 days (fraction); higher = more cells survive
# [1] = test system: HOP-62
# Outline: (§1)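 Each reported value is a median over duplicate plates. It expresses relative viability: treated-well nuclei count divided by vehicle-well nuclei count. Lung cancer cell lines in 1536-well plates were dosed by pin tool a day after seeding, alone with one drug or with a fixed anchor-drug dose plus five library-drug doses (not always all listed) in √10 steps, and nuclei were counted after 5 days.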
# [2] = test system: NCI-H1437
# Outline: as §1
# [3] = test system: SW 1573
# Outline: as §1
# [4] = test system: SK-LU-1
# Outline: as §1
# [5] = test system: HCC-827
# Outline: as §1
# [6] = test system: NCI-H1395
# Outline: as §1
# [7] = test system: NCI-H2009
# Outline: as §1
# [8] = test system: HCC-366
# Outline: as §1
# [9] = test system: NCI-H522
# Outline: as §1
# [10] = test system: COR-L 105
# Outline: as §1
# [11] = test system: NCI-H2228
# Outline: as §1
# [12] = test system: NCI-H1755
# Outline: as §1
# [13] = test system: NCI-H727
# Outline: as §1
# [14] = test system: A-427
# Outline: as §1
# [15] = test system: CAL-12T
# Outline: as §1
# [16] = test system: NCI-H1792
# Outline: as §1
# [17] = test system: EMC-BAC-2
# Outline: as §1
# [18] = test system: NCI-H1915
# Outline: as §1
# [19] = test system: HARA
# Outline: as §1
# [20] = test system: LCLC-103H
# Outline: as §1
# [21] = test system: NCI-H23
# Outline: as §1
# [22] = test system: NCI-H460
# Outline: as §1
compound,measurement,setting,value
Nc1ccn([C@@H]2O[C@H](CO)[C@@H](O)[C@@H]2O)c(=O)n1 [Cytarabine] + COc1cccc2cc(-c3nc([C@H]4CC[C@H](C(=O)O)CC4)n4ncnc(N)c34)[nH]c12 [OSI-027] (partner 0.5 µM),relative viability,[1]; first compound 0.005 µM,0.554
same,relative viability,[1]; first compound 0.01581 µM,0.474
same,relative viability,[1]; first compound 0.05 µM,0.458
same,relative viability,[1]; first compound 0.1581 µM,0.141
same,relative viability,[1]; first compound 0.5 µM,0.12
same,relative viability,[2]; first compound 0.005 µM,0.797
same,relative viability,[2]; first compound 0.01581 µM,0.584
same,relative viability,[2]; first compound 0.05 µM,0.541
same,relative viability,[2]; first compound 0.1581 µM,0.233
same,relative viability,[2]; first compound 0.5 µM,0.211
same,relative viability,[3]; first compound 0.005 µM,0.735
same,relative viability,[3]; first compound 0.01581 µM,0.49
same,relative viability,[3]; first compound 0.05 µM,0.466
same,relative viability,[3]; first compound 0.1581 µM,0.131
same,relative viability,[3]; first compound 0.5 µM,0.0871
same,relative viability,[4]; first compound 0.005 µM,0.275
same,relative viability,[4]; first compound 0.01581 µM,0.294
same,relative viability,[4]; first compound 0.05 µM,0.297
same,relative viability,[4]; first compound 0.1581 µM,0.193
same,relative viability,[4]; first compound 0.5 µM,0.199
same,relative viability,[5]; first compound 0.005 µM,0.467
same,relative viability,[5]; first compound 0.01581 µM,0.348
same,relative viability,[5]; first compound 0.05 µM,0.265
same,relative viability,[5]; first compound 0.1581 µM,0.175
same,relative viability,[5]; first compound 0.5 µM,0.159
same,relative viability,[6]; first compound 0.005 µM,0.592
same,relative viability,[6]; first compound 0.01581 µM,0.484
same,relative viability,[6]; first compound 0.05 µM,0.369
same,relative viability,[6]; first compound 0.1581 µM,0.349
same,relative viability,[6]; first compound 0.5 µM,0.328
same,relative viability,[7]; first compound 0.005 µM,0.656
same,relative viability,[7]; first compound 0.01581 µM,0.642
same,relative viability,[7]; first compound 0.05 µM,0.621
same,relative viability,[7]; first compound 0.1581 µM,0.454
same,relative viability,[7]; first compound 0.5 µM,0.29
same,relative viability,[8]; first compound 0.005 µM,0.823
same,relative viability,[8]; first compound 0.01581 µM,0.61
same,relative viability,[8]; first compound 0.05 µM,0.558
same,relative viability,[8]; first compound 0.1581 µM,0.213
same,relative viability,[8]; first compound 0.5 µM,0.06
same,relative viability,[9]; first compound 0.005 µM,0.717
same,relative viability,[9]; first compound 0.01581 µM,0.599
same,relative viability,[9]; first compound 0.05 µM,0.395
same,relative viability,[9]; first compound 0.1581 µM,0.48
same,relative viability,[9]; first compound 0.5 µM,0.539
same,relative viability,[10]; first compound 0.005 µM,0.601
same,relative viability,[10]; first compound 0.01581 µM,0.587
same,relative viability,[10]; first compound 0.05 µM,0.586
same,relative viability,[10]; first compound 0.1581 µM,0.354
same,relative viability,[10]; first compound 0.5 µM,0.224
same,relative viability,[11]; first compound 0.005 µM,0.404
same,relative viability,[11]; first compound 0.01581 µM,0.209
same,relative viability,[11]; first compound 0.05 µM,0.244
same,relative viability,[11]; first compound 0.1581 µM,0.097
same,relative viability,[11]; first compound 0.5 µM,0.0984
same,relative viability,[12]; first compound 0.005 µM,0.574
same,relative viability,[12]; first compound 0.01581 µM,0.578
same,relative viability,[12]; first compound 0.05 µM,0.561
same,relative viability,[12]; first compound 0.1581 µM,0.318
same,relative viability,[12]; first compound 0.5 µM,0.309
same,relative viability,[13]; first compound 0.005 µM,0.589
same,relative viability,[13]; first compound 0.01581 µM,0.558
same,relative viability,[13]; first compound 0.05 µM,0.491
same,relative viability,[13]; first compound 0.1581 µM,0.38
same,relative viability,[13]; first compound 0.5 µM,0.347
same,relative viability,[14]; first compound 0.005 µM,0.4
same,relative viability,[14]; first compound 0.01581 µM,0.259
same,relative viability,[14]; first compound 0.05 µM,0.275
same,relative viability,[14]; first compound 0.1581 µM,0.16
same,relative viability,[14]; first compound 0.5 µM,0.177
same,relative viability,[15]; first compound 0.005 µM,0.697
same,relative viability,[15]; first compound 0.01581 µM,0.507
same,relative viability,[15]; first compound 0.05 µM,0.524
same,relative viability,[15]; first compound 0.1581 µM,0.233
same,relative viability,[15]; first compound 0.5 µM,0.197
same,relative viability,[16]; first compound 0.005 µM,0.757
same,relative viability,[16]; first compound 0.01581 µM,0.664
same,relative viability,[16]; first compound 0.05 µM,0.738
same,relative viability,[16]; first compound 0.1581 µM,0.615
same,relative viability,[16]; first compound 0.5 µM,0.427
same,relative viability,[17]; first compound 0.005 µM,0.413
same,relative viability,[17]; first compound 0.01581 µM,0.353
same,relative viability,[17]; first compound 0.05 µM,0.312
same,relative viability,[17]; first compound 0.1581 µM,0.27
same,relative viability,[17]; first compound 0.5 µM,0.22
same,relative viability,[18]; first compound 0.005 µM,0.657
same,relative viability,[18]; first compound 0.01581 µM,0.57
same,relative viability,[18]; first compound 0.05 µM,0.554
same,relative viability,[18]; first compound 0.1581 µM,0.372
same,relative viability,[18]; first compound 0.5 µM,0.338
same,relative viability,[19]; first compound 0.005 µM,0.438
same,relative viability,[19]; first compound 0.01581 µM,0.236
same,relative viability,[19]; first compound 0.05 µM,0.149
same,relative viability,[19]; first compound 0.1581 µM,0.107
same,relative viability,[19]; first compound 0.5 µM,0.101
same,relative viability,[20]; first compound 0.005 µM,0.412
same,relative viability,[20]; first compound 0.01581 µM,0.411
same,relative viability,[20]; first compound 0.05 µM,0.511
same,relative viability,[20]; first compound 0.1581 µM,0.418
same,relative viability,[20]; first compound 0.5 µM,0.473
same,relative viability,[21]; first compound 0.005 µM,0.582
same,relative viability,[21]; first compound 0.01581 µM,0.502
same,relative viability,[21]; first compound 0.05 µM,0.507
same,relative viability,[21]; first compound 0.1581 µM,0.272
same,relative viability,[21]; first compound 0.5 µM,0.161
same,relative viability,[22]; first compound 0.005 µM,0.384
same,relative viability,[22]; first compound 0.01581 µM,0.486
same,relative viability,[22]; first compound 0.05 µM,0.301
same,relative viability,[22]; first compound 0.1581 µM,0.055
same,relative viability,[22]; first compound 0.5 µM,0.0359

# Source: the supplement of paper PMC10307832
